Data: US7678365B2, “Disinfecting oral rinse compositions and process for using the same” (priority 2001, dated 2010)

Experiments:
[1] = Acid ionization constants and lactic acid/lactate speciation; format: physicochemical
From the text: […]. When citric acid is used as the supplemental acid, less total acid is required to achieve a desired pH than, say, when using malic acid, which is half the strength of citric (Ka1 of citric is 8.2×10^−4 vs. 3.9×10^−4 for malic acid). Thus a smaller amount of lactic acid is used when it represents, say, 10% of a lactic/citric combination than a lactic/malic combination; […]. In certain embodiments, the metal lactate in these compositions is an alkali, an alkaline earth lactate, or a heavier metal lactate. […]. Useful alkaline earth metal lactates include magnesium and calcium lactate. Available heavier metal lactates are ferrous and aluminum lactates, although the cation flavor is intrusive. […]. At pH 2.5 96% of the two lactic species exist as lactic acid, which drops to 70% at pH 3.5. […].
The acid and chlorite solutions had first been equilibrated at 37° C., to simulate body temperature. The solution pHs, in both cases, were 3.0. After 10 minutes, the solution Absorbance values were measured at a wavelength of 360 nm in a spectrophotometer, and the concentration of chlorine dioxide (ClO2) then calculated, using the molar extinction coefficient of 1,242 liter/mole.cm. […]

E. coli = assay: AOAC Germicidal Test procedure; format: cell-based; conditions: for E. coli organisms destroyed/killed: initial inoculum of E. coli 7.63 logs10/ml, equimolar amounts of the unionized acid form
From the text: […]. […] […].

Row | Structure (SMILES) | fraction of the two lactic species existing as lactic acid ([1]; pH 2.5) [%] | fraction of the two lactic species existing as lactic acid ([1]; pH 3.5) [%] | fraction of the two lactic species existing as lactic acid ([1]; pH 4.0) [%] | E. coli organisms destroyed/killed (E. coli) [logs10/ml] | residual E. coli organisms per ml after disinfection, malic acid-treated relative to lactic acid-treated suspension (E. coli; malic acid vs lactic acid) [times]
1 | CC(O)C(=O)O (stereo not drawn) [lactic acid] | 96 | 70 | 42 | 4.15 | 
2 | O=C(O)CC(O)C(=O)O (stereo not drawn) [malic acid] |  |  |  | 1.45 | ~1500
